For test [1], the system named is A375 cells (parental). Briefly: Dose-response curves and IC50, PrestoBlue cell viability, 72 h. The test is classed as cell-based, human. The following applies: for Half-maximal inhibitory concentration value (IC50), Mean: n.e. = did not suppress growth below 50% in the tested concentration range.
In test [2] the test system is A375-XP cells (Vemurafenib-resistant). Described as above. The test is classed as cell-based, human. As to conditions: n.e. = did not suppress growth below 50% in the tested concentration range.
The test system of test [3] is A375-GP cells (Dabrafenib-resistant). The test is described as above. As to conditions: n.e. = did not suppress growth below 50% in the tested concentration range. The test is classed as cell-based, human.
The next test relates to 501Mel cells (parental). Briefly: Kinase inhibitor library screening, PrestoBlue cell viability, 1 or 10 μM, 72 h. The following applies: 501Mel Parental. The gist of the method: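 Sensitive parental cells and their resistant derivatives were exposed to library compounds for 72 h. Values represent viability as a percentage of untreated cells.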
The test system of test [4] is 501Mel-GP cells (Dabrafenib-resistant). The test is described as above. As to conditions: 501Mel GP.
Test [5] has as its system 501Mel-XP cells (Vemurafenib-resistant). The description is as above. The following applies: 501Mel XP.
Test [6] relates to A375 cells (parental). The description is as above. The following applies: A375 Parental.
Test [7] relates to A375-GP cells (Dabrafenib-resistant). The description is as above. The following applies: A375 GP.
The test system of test [8] is A375-XP cells (Vemurafenib-resistant). The test is described as above. The following applies: A375 XP.
A further test relates to IGR37 cells (parental). The test is described as above. As to conditions: IGR37 Parental.
For test [9], the system named is IGR37-GP cells (Dabrafenib-resistant). The test is described as above. As to conditions: IGR37 GP.
Test [10] has as its system IGR37-XP cells (Vemurafenib-resistant). The test is described as above. The following applies: IGR37 XP.
Setting [11] is: Homo sapiens, read-out: Half-maximal inhibitory concentration value (IC50), Mean.

In the case of `Cn1cnc2c(F)c(Nc3ccc(Br)cc3Cl)c(C(=O)NOCCO)cc21` [AZD6244], the “Half-maximal inhibitory concentration value (IC50), Mean” value (in the test with A375 cells (parental) [1]; in test [2]; in [3]) was “n.e” throughout.
With `CCN(CCCOc1ccc2c(Nc3cc(CC(=O)Nc4cccc(F)c4)n[nH]3)ncnc2c1)CCOP(=O)(O)O` [Barasertib], the “Half-maximal inhibitory concentration value (IC50), Mean” value (in the test on A375 cells (parental) [1]; in test [2]; in [3]) was “n.e” in each case.
For the compound `C[C@]1(O)C[C@@H](c2nc(-c3ccc4ccc(-c5ccccc5)nc4c3)c3c(N)nccn32)C1` [Linsitinib], the IC50 was determined as 4170 nM in the test with A375 cells (parental) [1] (Homo sapiens, A-375, n.e. = did not suppress growth below 50% in the tested concentration range, read-out: Half-maximal inhibitory concentration value (IC50), Mean); 2940 nM in [2] (setting [11]); 2080 nM in [3] (setting [11]).
With `C[C@@H](N)[C@H]1CC[C@H](C(=O)Nc2ccncc2)CC1.Cl.Cl` [Y-27632 2HCl], the “cell viability (kinase inhibitor library screening)” value with 501Mel cells (parental) (1μΜ, in %) is recorded as 96.3; in [4] (10μΜ, in %), 87.8; in test [5] (1μΜ, in %), 90.1; in [5] (10μΜ, in %), 88.2; in the test on A375 cells (parental) [6] (10μΜ, in %), 91.8; in test [7] (1μΜ, in %), 97.3. Also, the “cell viability (kinase inhibitor library screening)” value came to 96.3 in test [7] (10μΜ, in %); 103.7 in [8] (1μΜ, in %); 107.2 in test [8] (10μΜ, in %); 97.4 in the test on IGR37 cells (parental) (10μΜ, in %); 98.0 in test [9] (1μΜ, in %); 91.2 in [9] (10μΜ, in %). For the same compound, the “cell viability (kinase inhibitor library screening)” value turned out to be 97.8 in test [10] (1μΜ, in %) and 70.6 in test [10] (10μΜ, in %).
Take `Nc1ccc(C(=O)Nc2cccc(-c3nc(N4CCOCC4)c4oc5ncccc5c4n3)c2)cn1` [YM201636]: in the test with 501Mel cells (parental) (10μΜ, 72 h, in %), the “Cell viability in kinase inhibitor library screening, 501Mel Parental, 10μΜ” value stood at 44.1. In test [4] (10μΜ, 72 h, in %), the “Cell viability in kinase inhibitor library screening, 501Mel GP, 10μΜ” value was found to be 31.8. In [5] (1μΜ, 72 h, in %), the “Cell viability in kinase inhibitor library screening, 501Mel XP, 1μΜ” value amounted to 91.0. In test [5] (10μΜ, 72 h, in %), the “Cell viability in kinase inhibitor library screening, 501Mel XP, 10μΜ” value came out at 17.1. The “Cell viability in kinase inhibitor library screening, A375 Parental, 10μΜ” value with A375 cells (parental) [6] (10μΜ, 72 h) amounted to 56.6. The “Cell viability in kinase inhibitor library screening, A375 Parental, 1μΜ” value with A375 cells (parental) [6] (1μΜ, 72 h) was determined as 99.8. In [7] (1μΜ, 72 h), the “Cell viability in kinase inhibitor library screening, A375 GP, 1μΜ” value is reported as 96.0. Besides, the “Cell viability in kinase inhibitor library screening, A375 GP, 10μΜ” value in [7] (10μΜ, 72 h) is listed as 53.2. The “Cell viability in kinase inhibitor library screening, A375 XP, 1μΜ” value in test [8] (1μΜ, 72 h) is recorded as 100.1. Also, the “Cell viability in kinase inhibitor library screening, A375 XP, 10μΜ” value in [8] (10μΜ, 72 h) is reported as 52.8. Further, the “Cell viability in kinase inhibitor library screening, IGR37 Parental, 1μΜ” value in the test on IGR37 cells (parental) (1μΜ, 72 h, in %) is given as 90.0. Further, in the test on IGR37 cells (parental) (10μΜ, 72 h, in %), the “Cell viability in kinase inhibitor library screening, IGR37 Parental, 10μΜ” value is recorded as 53.4. The same compound returned a Cell viability in kinase inhibitor library screening, IGR37 GP, 10μΜ in test [9] (10μΜ, 72 h) of 3.3%. Also, the “Cell viability in kinase inhibitor library screening, IGR37 GP, 1μΜ” value in test [9] (1μΜ, 72 h, in %) turned out to be 56.3. For the same compound, the Cell viability in kinase inhibitor library screening, IGR37 XP, 10μΜ in [10] (10μΜ, 72 h) was determined as 1.2%. Moreover, the “Cell viability in kinase inhibitor library screening, IGR37 XP, 1μΜ” value in test [10] (1μΜ, 72 h, in %) is 35.0.
As for `Cc1ccc(NC(=O)c2cccc(N(C)C)c2)cc1NC(=O)c1ccc(O)cc1` [ZM 336372], the “cell viability (kinase inhibitor library screening)” value is given as 98.4 with 501Mel cells (parental) (1μΜ, in %); 89.6 with 501Mel cells (parental) (10μΜ, in %); 108.5 in [4] (1μΜ, in %); 81.6 in [4] (10μΜ, in %); 90.4 in test [5] (1μΜ, in %); 83.5 in [5] (10μΜ, in %). In addition, the “cell viability (kinase inhibitor library screening)” value with A375 cells (parental) [6] (1μΜ, in %) turned out to be 103.4; in the test on A375 cells (parental) [6] (10μΜ, in %), 91.8; in test [7] (10μΜ, in %) it was 82.7; in [8] (1μΜ, in %), 103.8; in test [8] (10μΜ, in %), 95.8; in the test on IGR37 cells (parental) (1μΜ, in %), 102.6. The “cell viability (kinase inhibitor library screening)” value in the test on IGR37 cells (parental) (10μΜ, in %) was found to be 105.1; in [9] (1μΜ, in %), 99.1; in test [9] (10μΜ, in %), 96.2; in [10] (1μΜ, in %), 108.8; in [10] (10μΜ, in %) it was 93.5.
Turning to `COc1cc2c(Nc3ccc(NC(=O)c4ccccc4)cc3)ncnc2cc1OCCCN1CCOCC1` [ZM-447439], the “cell viability (kinase inhibitor library screening)” value in the test on 501Mel cells (parental) (1μΜ, 72 h) was 90.8%; in the test with 501Mel cells (parental) (10μΜ, 72 h), 7.6%; in test [4] (1μΜ, 72 h) it was 104.5%; in test [4] (10μΜ, 72 h), 2.3%; in test [5] (1μΜ, 72 h) it was 90.5%; in test [5] (10μΜ, 72 h), -0.26%. Further, the “cell viability (kinase inhibitor library screening)” value came to 56.3% with A375 cells (parental) [6] (10μΜ, 72 h); 76.7% in the test on A375 cells (parental) [6] (1μΜ, 72 h); 79.5% in test [7] (1μΜ, 72 h); 52.0% in test [7] (10μΜ, 72 h); 88.7% in test [8] (1μΜ, 72 h); 65.2% in [8] (10μΜ, 72 h). The “cell viability (kinase inhibitor library screening)” value in the test on IGR37 cells (parental) (1μΜ, 72 h) is 103.7%; in the test on IGR37 cells (parental) (10μΜ, 72 h), 54.6%; in test [9] (1μΜ, 72 h), 96.5%; in test [9] (10μΜ, 72 h), 69.7%; in test [10] (1μΜ, 72 h) it was 95.9%; in [10] (10μΜ, 72 h), 24.7%.
As for `FC(F)c1nc2ccccc2n1-c1nc(N2CCOCC2)nc(N2CCOCC2)n1` [ZSTK474], in the test with 501Mel cells (parental) (1μΜ, 72 h, in %), the “Cell viability in kinase inhibitor library screening, 501Mel Parental, 1μΜ” value is 66.9. Also, the “Cell viability in kinase inhibitor library screening, 501Mel Parental, 10μΜ” value in the test with 501Mel cells (parental) (10μΜ, 72 h, in %) was found to be 8.9. The “Cell viability in kinase inhibitor library screening, 501Mel GP, 1μΜ” value in test [4] (1μΜ, 72 h, in %) worked out at 45.9. Besides, in test [4] (10μΜ, 72 h, in %), the “Cell viability in kinase inhibitor library screening, 501Mel GP, 10μΜ” value is 9.4. For the same compound, the “Cell viability in kinase inhibitor library screening, 501Mel XP, 10μΜ” value in test [5] (10μΜ, 72 h, in %) is reported as 2.5. In addition, in the test on A375 cells (parental) [6] (10μΜ, 72 h), the “Cell viability in kinase inhibitor library screening, A375 Parental, 10μΜ” value was 16.3. Further, the “Cell viability in kinase inhibitor library screening, A375 Parental, 1μΜ” value in the test with A375 cells (parental) [6] (1μΜ, 72 h) amounted to 76.3. Further, the “Cell viability in kinase inhibitor library screening, A375 GP, 1μΜ” value in test [7] (1μΜ, 72 h) came out at 69.9. Further, the “Cell viability in kinase inhibitor library screening, A375 GP, 10μΜ” value in [7] (10μΜ, 72 h) is 13.0. Besides, the “Cell viability in kinase inhibitor library screening, A375 XP, 1μΜ” value in test [8] (1μΜ, 72 h) was 67.6. The “Cell viability in kinase inhibitor library screening, A375 XP, 10μΜ” value in test [8] (10μΜ, 72 h) is 15.9. Also, the “Cell viability in kinase inhibitor library screening, IGR37 Parental, 1μΜ” value with IGR37 cells (parental) (1μΜ, 72 h, in %) came out at 77.8. Further, in the test on IGR37 cells (parental) (10μΜ, 72 h, in %), the “Cell viability in kinase inhibitor library screening, IGR37 Parental, 10μΜ” value is listed as 23.8. Besides, the Cell viability in kinase inhibitor library screening, IGR37 GP, 10μΜ in test [9] (10μΜ, 72 h) came to 8.8%. The “Cell viability in kinase inhibitor library screening, IGR37 GP, 1μΜ” value in [9] (1μΜ, 72 h, in %) is 80.3. This compound also displayed a Cell viability in kinase inhibitor library screening, IGR37 XP, 10μΜ in test [10] (10μΜ, 72 h) of 4.7%. Also, the “Cell viability in kinase inhibitor library screening, IGR37 XP, 1μΜ” value in [10] (1μΜ, 72 h, in %) was 71.7.
As to MK-2206 dihydrochloride, the “cell viability (kinase inhibitor library screening)” value came out at 98.7% with 501Mel cells (parental) (1μΜ, 72 h); 7.6% in the test with 501Mel cells (parental) (10μΜ, 72 h); 90.7% in test [4] (1μΜ, 72 h); 28.3% in [4] (10μΜ, 72 h); 69.2% in test [5] (1μΜ, 72 h); 1.7% in [5] (10μΜ, 72 h). Moreover, the “cell viability (kinase inhibitor library screening)” value in the test with A375 cells (parental) [6] (10μΜ, 72 h) is on record as 74.4%; in test [7] (1μΜ, 72 h) it was 96.2%; in test [7] (10μΜ, 72 h), 66.2%; in [8] (1μΜ, 72 h), 93.8%; in [8] (10μΜ, 72 h) it was 54.1%; in the test with IGR37 cells (parental) (10μΜ, 72 h) it was 25.6%. The “cell viability (kinase inhibitor library screening)” value was determined as 100.0% in [9] (1μΜ, 72 h); 15.9% in [9] (10μΜ, 72 h); 94.6% in [10] (1μΜ, 72 h); 4.2% in test [10] (10μΜ, 72 h).

The record behind these values is paper PMC6364417, “Kinase inhibitor library screening identifies synergistic drug combinations effective in sensitive and resistant melanoma cells” (Journal of Experimental & Clinical Cancer Research : CR, 2019).
